Laboratory results: US20070292895A1, “Assays and methods to detect beta-secretase and its activity in body fluids and tissue extracts” (priority 2006, published 2007)
Values belong to the molecule of their own block, whether it stands above or below them. Non-standard residues stand in square brackets, D forms with d. Residues, ends and D or L forms follow the SMILES beside them. *: point of attachment. Sta = CC(C)C[C@H](N)[C@@H](O)CC(=O)O; Isovaleryl = CC(C)CC(=O)*

How the values were obtained:
[1] = target: T1, BACE-1 (Mus musculus, UniProt P56818); assay: Brain BACE-1 activity assay, brain membrane extract, coumarin-labeled 10-mer substrate, HPLC detection; type: biochemical; conditions: E64 at 10 μM; membrane preparations from WT mice
T1 construct: a brain membrane extract containing endogenous BACE-1; from tissue; host or cells: mouse brain membrane preparation (wild-type mice)
T1 sequence (P56818 46-501): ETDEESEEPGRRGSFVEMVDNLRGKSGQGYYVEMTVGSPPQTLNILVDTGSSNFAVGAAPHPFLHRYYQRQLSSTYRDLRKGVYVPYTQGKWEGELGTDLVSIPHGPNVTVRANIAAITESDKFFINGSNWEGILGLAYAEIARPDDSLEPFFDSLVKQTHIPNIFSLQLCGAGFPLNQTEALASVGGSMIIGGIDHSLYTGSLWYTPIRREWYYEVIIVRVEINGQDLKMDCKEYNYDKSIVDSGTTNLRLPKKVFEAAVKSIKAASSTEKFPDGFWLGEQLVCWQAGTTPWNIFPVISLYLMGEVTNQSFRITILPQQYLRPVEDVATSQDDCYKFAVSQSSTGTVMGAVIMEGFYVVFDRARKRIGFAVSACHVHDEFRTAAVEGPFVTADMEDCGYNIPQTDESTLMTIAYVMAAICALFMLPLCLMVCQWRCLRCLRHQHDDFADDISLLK
Method: (§1) Brain BACE-1 enzymatic activity was measured using brain membrane extracts in a two-step method. In the first reaction step, a brain membrane extract containing endogenous BACE-1 is reacted with a coumarin labeled 10-mer peptide substrate in the presence of non-specific protease inhibitor cocktail and aspartyl protease inhibitor Pepstatin A. In a second detection step, an HPLC-based detection method is used to determine the extent of enzymatic cleavage of the 10-mer substrate.
(§2) Brain membranes are prepared as follows. Mice brain sections are homogenized in 10× w/v 50 mM MES buffer with protease inhibitor (Roche Applied Science, Indianapolis, Ind., Cat#11836145), pH 6.0 using a glass/Teflon homogenizer, using about 10 strokes. The homogenates are then spun at 2000 rpm (900×g) at 4° C. for 10 minutes. […] Protein concentration is determined using modified Bradford method (DC protein assay kit Cat#500-0114, Bio-Rad Laboratories, Hercules, Calif.). […]
(§3) In the second step, the BACE-1 cleavage product is detected. The resulting mixture is then chromatographed in a Waters Alliance HT HPLC system (Waters 2790, Waters Corporation, Milford, Mass.) to detect product and substrate fluorescence as follows. […]
(§4) The amount of cleaved product and substrate are detected with excitation at 340 nm and emission at 440 nm.

[2] = tested on: BACE-1 activity in CSF; assay: CSF BACE-1 activity with combinations of protease inhibitors (FIG. 9); type: biochemical; conditions: Merck-3 at 10 μM; Pepstatin A 10 μM present
Method: (§5) This example illustrates a method for solution based detection of BACE-1 activity in cerebral spinal fluid (CSF). BACE-1 enzymatic activity in CSF was measured using a two-step method. In the first step, cleavage of a biotinylated peptide substrate is accomplished using CSF as the source of BACE-1 enzyme. In the second step, the extent of enzymatic cleavage of substrate is detected using an avidin-biotin complex and enzyme linked immunosorbent assay (ELISA).
(§6) In the peptide substrate cleavage step, 25 μL of either purified recombinant baculovirus expressed BACE-1(aa1-460) at a range of concentration from 0.8 pM to 100 pM or rhesus or human CSF is added to the wells of a 96 well assay plate (COSTAR brand, Cat#3365). […]
(§7) In the second step, the product of BACE-1 enzymatic cleavage of the biotin-labeled peptide is measured by ELISA. […]
(§8) Afterwards, the plate is washed three times with PBST. […] The reaction is finally developed using 100 μL/well of CDP-STAR ready-to-use with HRP substrate (EMD Biosciences, Inc. San Diego, Calif.) or SAPPHIRE-II Enhancer substrate (Applied Biosystems, Foster City, Calif., Cat# T2214) for 30 minutes at room temperature. Absorbance or Luminescence counts, respectively, are measured in LJL-Analyst (Molecular Devices Corp., Sunnyvale, Calif.). […]

[3] = tested on: non-specific aspartyl protease activity; assay: Non-specific aspartyl protease activity in brain membrane preparations, same HPLC cleavage assay; type: biochemical, mouse; conditions: membrane preparations from WT mice
Method: as §1, §2, §3, §4

[4] = tested on: non-specific aspartyl protease activity; assay: Non-specific aspartyl protease activity in CSF (FIG. 9); type: biochemical; conditions: Pepstatin A 10 μM; this activity was about 59% of the protease activity in CSF
Method: as §5, §6, §7, §8

effect on cleavage of substrate (FIG. 4) [1]: no effect on cleavage of substrate
Structure (SMILES): CC(C)C[C@H](NC(=O)[C@H]1O[C@@H]1C(=O)O)C(=O)NCCCCN=C(N)N [E64]

Structure (SMILES): C[C@@H](NC(=O)c1cc(C(=O)N[C@@H](Cc2ccccc2)[C@H](O)CNC2CC2)cc(N(C)S(C)(=O)=O)c1)c1ccccc1 [Merck-3]
BACE-1 activity in CSF remaining after Pepstatin A (FIG. 9) [2]: completely abolished

Structure (SMILES): CC(C)CC(=O)N[C@H](C(=O)N[C@H](C(=O)N[C@@H](CC(C)C)[C@@H](O)CC(=O)N[C@@H](C)C(=O)N[C@@H](CC(C)C)[C@@H](O)CC(=O)O)C(C)C)C(C)C [Pepstatin A, pepstatin A] (Isovaleryl-VV[Sta]A[Sta]-OH)
non-specific aspartyl protease activity (FIG. 4) [3]: abolished | non-specific aspartyl protease activity in CSF (FIG. 9) [4]: abolished
